The values below come from article PMC12154458, “High-Throughput Screens of Repurposing Hub and DOS Chemical Libraries Reveal Compounds with Novel and Potent Inhibitory Activity Against the Essential Non-Neuronal Acetylcholinesterase of Schistosoma mansoni (SmTAChE)” (International Journal of Molecular Sciences, 2025).

pIC50: −log10 of the molar value. Counter-ions that a name gives are not always drawn. Like-named read-outs stand apart in the source and are kept apart here.

Experiment [1] concerns the target recombinant human acetylcholinesterase, rHsAChE (Homo sapiens, UniProt P22303). The experiment in a line: biochemical. Particulars: for pIC50: read-out: qAC50 (IC50), rHsAChE; for inhibition of rHsAChE, result in words: dose–response, up to 40 µM.
Experiment [2] has as its target T1, rSmTAChE (Schistosoma mansoni, UniProt A0A3Q0KMM5). Nature of the experiment: biochemical.
Experiment [3] has as its target T1, rSmTAChE. Format: biochemical. The settings on record: for pIC50: read-out: qAC50 (IC50), rSmTAChE.
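Wherever Inhibition (%) (Average) is given: mostly 20 µM final but a few compounds at 5 or 10 µM.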
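Wherever Inhibition (%) Replicate A is given: mostly 20 µM final but a few compounds at 5 or 10 µM.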
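Wherever Inhibition (%) Replicate B is given: mostly 20 µM final but a few compounds at 5 or 10 µM.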

T1 sequence (A0A3Q0KMM5 27-661 limits assumed): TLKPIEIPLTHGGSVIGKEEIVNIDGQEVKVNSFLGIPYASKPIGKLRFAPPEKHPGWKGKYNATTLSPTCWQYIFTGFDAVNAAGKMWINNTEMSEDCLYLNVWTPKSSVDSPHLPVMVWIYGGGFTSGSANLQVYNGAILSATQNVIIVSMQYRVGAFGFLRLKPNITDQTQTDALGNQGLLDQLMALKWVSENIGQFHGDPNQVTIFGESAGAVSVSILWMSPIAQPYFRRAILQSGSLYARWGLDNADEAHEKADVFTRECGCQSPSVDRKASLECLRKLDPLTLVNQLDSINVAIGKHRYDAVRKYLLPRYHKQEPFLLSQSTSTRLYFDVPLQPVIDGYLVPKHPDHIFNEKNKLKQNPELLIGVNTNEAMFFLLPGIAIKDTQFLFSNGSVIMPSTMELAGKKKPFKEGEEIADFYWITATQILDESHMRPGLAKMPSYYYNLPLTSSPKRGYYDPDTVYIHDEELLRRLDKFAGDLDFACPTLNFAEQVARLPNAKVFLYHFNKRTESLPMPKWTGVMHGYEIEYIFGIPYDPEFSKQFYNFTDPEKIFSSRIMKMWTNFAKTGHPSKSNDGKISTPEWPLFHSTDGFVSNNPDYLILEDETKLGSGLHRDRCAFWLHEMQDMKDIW
recombinant human acetylcholinesterase, rHsAChE, sequence (P22303 32-614): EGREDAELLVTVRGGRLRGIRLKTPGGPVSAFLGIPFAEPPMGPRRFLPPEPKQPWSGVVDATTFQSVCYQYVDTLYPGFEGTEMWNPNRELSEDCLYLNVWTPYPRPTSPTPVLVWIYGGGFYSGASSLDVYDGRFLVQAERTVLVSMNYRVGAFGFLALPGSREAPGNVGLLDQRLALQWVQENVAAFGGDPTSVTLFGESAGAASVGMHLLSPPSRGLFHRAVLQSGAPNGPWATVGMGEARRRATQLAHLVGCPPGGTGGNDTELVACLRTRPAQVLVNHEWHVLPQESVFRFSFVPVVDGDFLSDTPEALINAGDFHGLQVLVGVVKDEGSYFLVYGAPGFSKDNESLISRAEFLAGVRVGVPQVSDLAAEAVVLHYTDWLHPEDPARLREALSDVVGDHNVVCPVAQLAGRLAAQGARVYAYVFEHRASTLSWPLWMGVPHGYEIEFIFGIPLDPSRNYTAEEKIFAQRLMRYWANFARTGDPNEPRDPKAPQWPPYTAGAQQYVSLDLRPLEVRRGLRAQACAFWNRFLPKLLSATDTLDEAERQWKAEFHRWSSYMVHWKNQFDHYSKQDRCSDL

Turning to `COc1ccccc1-c1cccc(-c2nc(C(=O)NCc3ccncc3)cc3c2[C@@H](CCO)N([S@+]([O-])C(C)(C)C)C3)c1` [BRD-K32310489-001-03-4], in experiment [1], the “rHsAChE Data Mode” value is “inactive”. In experiment [2], the “Inhibition (%) (Average)” value amounted to 64.60%, the “Inhibition (%) Replicate A” value was determined as 65.31% and the “Inhibition (%) Replicate B” value stood at 63.89%. The “rSmTAChE Data Mode” value in experiment [3] was “decreasing (weakly active)”.
On to `Brc1cc2c(cc1[C@@H]1Nc3ccccc3[C@@H]3C=CC[C@@H]31)OCO2` [G15, reference compound], for which, in experiment [1], the “Data Mode (curve class), rHsAChE” value was “decreasing (weakly active)” and the “SI (Sm/Hs)” value came to 2.81. Moreover, the concentration for half-maximal inhibition (IC50) (in general, the point on the concentration scale where inhibition reaches its midpoint) in experiment [1] (read-out: IC50 (µM) rHsAChE) is more than 13.5 µM. Further, in experiment [2], the “Inhibition (%) Replicate A” value is listed as 75.36% and the “Inhibition (%) Replicate B” value was 80.61%. In experiment [2] (20 µM), the “rSmTAChE HTS Inhibition (Ave, %)” value was found to be 77.99%. For the same molecule, the “Data Mode (curve class), rSmTAChE” value in experiment [3] was “decreasing (weakly active)”.
Take `CCCC#Cc1ccc([C@H]2[C@@H](CO)N3C(=O)CN(S(=O)(=O)c4ccccc4C)C[C@@H]23)cc1` [BRD-K77990919-001-01-3]: the “rHsAChE Data Mode” value in experiment [1] was “inactive”. In addition, in experiment [2], the “Inhibition (%) (Average)” value is reported as 79.61%, the “Inhibition (%) Replicate A” value came out at 76.02% and the “Inhibition (%) Replicate B” value came to 83.20%. Further, in experiment [3], the “rSmTAChE Data Mode” value is “inactive”.
For the molecule `CCCNC(=O)Nc1ccc(Oc2ncnc3cc(OC)c(OC)cc23)cc1Cl` [BRD-K90993449-001-02-7], the “Data Mode (curve class), rHsAChE” value in experiment [1] is “inactive”. In addition, in experiment [2], the “Inhibition (%) (Average)” value is 77.29%, the “Inhibition (%) Replicate A” value was 77.00% and the “Inhibition (%) Replicate B” value came to 77.59%. Besides, in experiment [3], the “Data Mode (curve class), rSmTAChE” value is listed as “decreasing (weakly active)” and the pIC50 (usually −log10 of the IC50, conventionally taken in molar units) is less than 4.42.
Consider `CCCCCCCCCCCC([NH2+][O-])c1cc(C)ccc1O` (centres unmarked) [BRD-A37752546-001-01-9], for which, in experiment [1], the “Data Mode (curve class), rHsAChE” value is given as “decreasing” and the pIC50 was 5.11. In experiment [2], the “Inhibition (%) (Average)” value came to 84.23%, the “Inhibition (%) Replicate A” value was determined as 82.45% and the “Inhibition (%) Replicate B” value is recorded as 86.01%. Further, in experiment [3], the “Data Mode (curve class), rSmTAChE” value is “inactive”.
On to `O=C1[C@@H]2[C@H]3CC[C@H](C3)[C@@H]2C(=O)N1C[C@@H]1CCCC[C@H]1CN1CCN(c2nsc3ccccc23)CC1` [BRD-K51143828-003-03-1], for which, in experiment [1], the “Data Mode (curve class), rHsAChE” value was “inactive”. Further, in experiment [2], the “Inhibition (%) (Average)” value amounted to 77.24%, the “Inhibition (%) Replicate A” value stood at 79.39% and the “Inhibition (%) Replicate B” value stood at 75.09%. In experiment [3], the “Data Mode (curve class), rSmTAChE” value was “decreasing (weakly active)” and the pIC50 was less than 4.42.
`C[C@H](Oc1cc(-c2cnn(C3CCNCC3)c2)cnc1N)c1c(Cl)ccc(F)c1Cl` [BRD-K40308497-001-02-0]: in experiment [1], the “Data Mode (curve class), rHsAChE” value was “decreasing” and the pIC50 is 4.67. Further, in experiment [3], the “Data Mode (curve class), rSmTAChE” value was “decreasing” and the pIC50 is 4.57.
For `CCCCCCCCc1ccc(CCC(N)(CO)CO)cc1` [BRD-K88025533-003-03-3], in experiment [2], the “Inhibition (%) (Average)” value came to 70.74%, the “Inhibition (%) Replicate A” value is reported as 73.25% and the “Inhibition (%) Replicate B” value was 68.23%.
For `C/C=C1\[C@H]2C=C(C)C[C@]1(N)c1ccc(=O)[nH]c1C2` [Huperzine A, reference compound], the inhibition (in general, how much of the control response was suppressed) at 20 µM in experiment [2] (read-out: rSmTAChE HTS Inhibition (Ave, %)) worked out at 64.1%. In addition, in experiment [3], the “Data Mode (curve class), rSmTAChE” value was “decreasing”.
Turning to `CCCCCCCCc1ccc(CCC(N)(CO)CO)cc1` [BRD-K88025533-003-04-1], in experiment [1], the “Data Mode (curve class), rHsAChE” value is “inactive”. Moreover, the “Data Mode (curve class), rSmTAChE” value in experiment [3] was “inactive”.
Regarding `CC1(C)CCC(C)(C)c2cc(C#Cc3ccc(C(=O)O)cc3)ccc21` [BRD-K81004638-001-01-7], in experiment [1], the “Data Mode (curve class), rHsAChE” value is “decreasing” and the pIC50 was 4.84. Also, in experiment [3], the “Data Mode (curve class), rSmTAChE” value is “decreasing” and the pIC50 was 4.70.
As for `CNC(=O)Oc1ccc2c(c1)[C@]1(C)CCN(C)[C@@H]1N2C` [Physostigmine sulfate, reference compound], the “Data Mode (curve class), rHsAChE” value in experiment [1] is on record as “decreasing”. Besides, the “Data Mode (curve class), rSmTAChE” value in experiment [3] is “decreasing”.
Take `C[C@]12CC[C@@H]3c4ccc(O)cc4C[C@@H](CCCCCCCCC[S+]([O-])CCCC(F)(F)C(F)(F)F)[C@H]3[C@@H]1CC[C@@H]2O` (some centres unmarked) [BRD-A85667082-001-12-7]: the “Data Mode (curve class), rHsAChE” value in experiment [1] is “inactive”. Further, in experiment [3], the “Data Mode (curve class), rSmTAChE” value was “decreasing (weakly active)” and the pIC50 was less than 4.42.
Take `CC1(C)CCC(C)(C)c2cc(C#Cc3ccc(C(=O)O)cc3)ccc21` [BRD-K81004638-001-02-5]: in experiment [2], the “Inhibition (%) (Average)” value came out at 66.58%, the “Inhibition (%) Replicate A” value is reported as 64.60% and the “Inhibition (%) Replicate B” value stood at 68.56%.
For `C[C@H](Oc1cc(-c2cnn(C3CCNCC3)c2)cnc1N)c1c(Cl)ccc(F)c1Cl` [BRD-K40308497-001-01-2], in that order: 86.27%, 85.50% and 87.03%.
On to `CC(C)(O)c1ccccc1CC[C@@H](SCC1(CC(=O)O)CC1)c1cccc(/C=C/c2ccc3ccc(Cl)cc3n2)c1` [BRD-K69470111-001-01-2], for which, in experiment [1], the “Data Mode (curve class), rHsAChE” value is listed as “increasing (weakly active)” and the pIC50 was less than 4.42. Further, in experiment [3], the “Data Mode (curve class), rSmTAChE” value is recorded as “decreasing (weakly active)” and the pIC50 was less than 4.42.
As for `CC(C)Oc1ccc(-c2cnc3c(-c4ccnc5ccccc45)cnn3c2)cc1` [BRD-K39381259-001-02-8], in experiment [2], the “Inhibition (%) (Average)” value came to 67.85%, the “Inhibition (%) Replicate A” value was 64.38% and the “Inhibition (%) Replicate B” value is given as 71.32%.
Take `CNC(=O)Oc1ccc2c(c1)[C@]1(C)CCN(C)[C@@H]1N2C` [Physostigmine salicylate, reference compound]: in experiment [1], the “Data Mode (curve class), rHsAChE” value is “decreasing”. In experiment [3], the “Data Mode (curve class), rSmTAChE” value is recorded as “decreasing”.
Turning to `CC(C)(O)c1ccccc1CC[C@@H](SCC1(CC(=O)O)CC1)c1cccc(/C=C/c2ccc3ccc(Cl)cc3n2)c1` [BRD-K69470111-236-09-7], in experiment [2], the “Inhibition (%) (Average)” value came to 81.70%, the “Inhibition (%) Replicate A” value worked out at 81.35% and the “Inhibition (%) Replicate B” value is on record as 82.06%.
In the case of `Nc1ccc(O)c(C(=O)O)c1` [Mesalazine, reference compound], in experiment [1], the “IC50 (µM) rHsAChE” value is “Inactive” and the “inhibition of rHsAChE, result in words” value is on record as “no detectable inhibitory effect”. For the same molecule, in experiment [1] (listed as #19), the “inhibition of rHsAChE, result in words” value is “no inhibition detected”. The “Data Mode (curve class), rSmTAChE” value in experiment [3] is recorded as “decreasing”.
Turning to `CC(C)Oc1ccc(-c2cnc3c(-c4ccnc5ccccc45)cnn3c2)cc1` [BRD-K39381259-001-01-0], in experiment [1], the “Data Mode (curve class), rHsAChE” value is given as “decreasing (weakly active)” and the negative-log IC50 (pIC50) was less than 4.87. Moreover, the “Data Mode (curve class), rSmTAChE” value in experiment [3] is “inactive”.
Consider `C[C@]12CC[C@@H]3c4ccc(O)cc4C[C@@H](CCCCCCCCC[S+]([O-])CCCC(F)(F)C(F)(F)F)[C@H]3[C@@H]1CC[C@@H]2O` (some centres unmarked) [BRD-A85667082-001-10-1], for which, in experiment [2], the “Inhibition (%) (Average)” value was found to be 87.19%, the “Inhibition (%) Replicate A” value is on record as 87.84% and the “Inhibition (%) Replicate B” value was determined as 86.54%.
